In US20010042520A1, “Method for producing model animals for itching induced by disruption of cutaneous barrier function” (priority 2000, published 2001):

What was measured:
Assay type in all cases: in vivo, male ICR mice
[1] = test system: scratching action induced by the disruption of the cutaneous barrier function of mice; test: Scratching action of mice with disrupted cutaneous barrier function (acetone/diethylether mixture and distilled water, twice daily for 5 days); conditions: for number of the scratching action based on that of the control group: 120 minutes recording, control average = 100%, average ± standard error, 8 mice; for number of the scratching action bouts per 120 minutes: 10% aqueous solution, control group 126.5±20.8, significant
Excerpt: (§1) A rostral part (4 cm^2, i.e. 2 cm×2 cm) of the back skin in each of 10 male ICR mice was shaved. Four days after the shaving, the following test was started: The skin was covered with a 2 cm×2 cm absorbent cotton impregnated with a mixture of acetone and diethylether (1:1) for 15 seconds. The skin was wiped to remove superfluous solvent, then covered with an absorbent cotton impregnated with distilled water for 30 seconds, and wiped in the same manner as that described above. This treatment for disrupting the cutaneous barrier function of the skin was conducted twice in daily at intervals of at least 8 hours for 5 days. In a control group, only the shaving was conducted.
On the next day after the completion of the 5 days treatment for disrupting the skin barrier function, each mouse was placed in each section of an acrylic acid resin cage (26×18×33 cm) divided into four sections (each section: 13×9×33 cm). After the mice was acclimatized to the cage in unmanned environment for 60 minutes, the action of each mouse was recorded for 120 minutes with a 8 mm video camera placed above the cage in such a manner that the 4 sections are in one scene. The scratching action was observed by playing back the video tape. The number of the scratching action by which the tip of a toe of a hind limb of the mouse touched the shaved part of the skin in 120 minutes was counted by the visual observation. One scratching action was a series of action beginning when the mouse raised its hind limb for starting the scratching and ending when the animal lowers its hind limb.
The effect of Terfenadine, which is a histamine H1 receptor antagonist, and that of Naloxone, which is an opioid antagonist, for relieving the itching were determined with the same test materials as those in Example 1. The barrier function-disrupting treatment was conducted in the same manner as that of Example 1. On the next day after the completion of the 5 days barrier function disrupting treatment, the scratching action of mice was recorded for 120 minutes in the same manner as that of Example 1. The observation of the behavior of the mice and the counting of the number of times of the scratching action were conducted in the same manner as that of Example 1. 10 mg/kg of Terfenadine which is the histamine H1 receptor antagonist, was perorally administered at 30 minutes before the starting to record the scratching action, or 1 mg/kg of Naloxone, which is an opioid receptor antagonist, was subcutaneously injected at 15 minutes before the starting to record the scratching action. […]
(§2) The effect of glycerol (humectant) on the skin manifestations and itching induced by the barrier disruption treatment of the present invention was determined by using the test animals similar to those used in Example 1. […] The skin manifestations were examined by the visual observation and the determination of hydration of the stratum corneum based on the relative electrostatic capacitance determined with Corneometer CM 825 (Courage+Khazaka Electronics, Cologne, Germany). Hydration of the stratum corneum was determined before starting the first barrier disrupting treatment every day and on the next day after the completion of the five days barrier disruption treatment. As for the scratching action, the scratching action of each mouse was filmed and recorded for 120 minutes in the same manner as that in Example 1 on next day after the completion of the five days barrier disruption treatment. […]

[2] = test system: formation of scales and wrinkles induced by the cutaneous barrier disruption; test: Visual observation of skin manifestations (scales and wrinkles) in barrier-disrupted mice
Excerpt: as §1
as §2, with “treatment.” for “treatment. As for the scratching action, the scratching action of each mouse was filmed and recorded for 120 minutes in the same manner as that in Example 1 on next day after the completion of the five days barrier disruption treatment.”

[3] = test system: hydration of the stratum corneum; test: Hydration of the stratum corneum by relative electrostatic capacitance (Corneometer CM 825) in barrier-disrupted mice
Excerpt: as §1
as §2, with “treatment.” for “treatment. As for the scratching action, the scratching action of each mouse was filmed and recorded for 120 minutes in the same manner as that in Example 1 on next day after the completion of the five days barrier disruption treatment.”

[4] = 10 mg/kg perorally 30 minutes before recording

C=CCN1CC[C@]23c4c5ccc(O)c4O[C@H]2C(=O)CC[C@@]3(O)[C@H]1C5 [Naloxone]
number of the scratching action based on that of the control group ([1]; 1 mg/kg subcutaneously 15 minutes before recording, significant vs control (5%)): 42.5±13.1%

CC(C)(C)c1ccc(C(O)CCCN2CCC(C(O)(c3ccccc3)c3ccccc3)CC2)cc1 (stereo not drawn) [Terfenadine]
suppressing effect on the scratching action [1, 4]: no suppressing effect was recognized
number of the scratching action based on that of the control group [1, 4]: 124.2±49.3%

OCC(O)CO [glycerol]
formation of scales and wrinkles induced by the cutaneous barrier disruption ([2]; 10% aqueous solution applied for 5 days): completely inhibited
scales and wrinkle formation ([2]; 10% aqueous solution applied for one day): slight scales and wrinkle formation was observed
hydration of the stratum corneum (relative electrostatic capacitance) ([3]; 10% aqueous solution applied for 5 days, next day after the 5 days barrier disrupting treatment, 40.0±1.2 before start, control 15.5±2.1): 44.7±3.0
hydration of the stratum corneum (relative electrostatic capacitance) ([3]; 10% aqueous solution applied for one day, recovered from 20.5±1.3 after 4 days of treatment, 43.5±1.3 before start): 41.3±2.6
number of the scratching action bouts per 120 minutes ([1]; 50 μl applied for 5 days, one hour after each barrier disruption treatment): 42.5±10.0 per 120 minutes
number of the scratching action bouts per 120 minutes ([1]; 50 μl applied for one day (twice on the fifth day)): 76.5±14.6 per 120 minutes
